Results on eight compounds are retold here after ChEMBL document CHEMBL1201862, “PubChem BioAssay data set” (2004).

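Test compounds were applied to cells in 96-well plates for 48 hours at 5 doses. Abbreviation: GI50, concentration required for 50% inhibition of growth.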 Calls of active or inactive are those of the source. Rule as the data show it: active = GI50 up to about 1.1 µM and inactive = higher.

Test systems include 786-0; A498; HCC 2998; HCT-116; HCT-15; HL-60; HOP-92; IGROV-1; LOX IMVI; M14; Malme-3M; NCI-H23; NCI-H460; OVCAR-4; SF-295; SF-539; SR; UO-31.
Common to all, as to assay: inhibition of tumour cell growth, NCI panel, 48 h

In the case of `CC1CC2C3CCC4=CC(=O)C=CC4(C)C3(F)C(O)CC2(C)C1(O)C(=O)CO.Cc1cc(NS(=O)(=O)c2ccc(/N=N\c3cc(/N=N/c4ccc(S(=O)(=O)Nc5cc(C)nc(C)n5)cc4)c(OC(=O)C(Cl)Cl)c4cccc(NC(=O)C(Cl)Cl)c34)cc2)nc(C)n1`, the GI50 in the experiment on 786-0 is 18 µM (inactive); in the experiment with A498, 27.5 µM (inactive); in the experiment on HCC 2998, 18.4 µM (inactive); in the experiment on HCT-116, 34.3 µM (inactive); with HCT-15, 15.6 µM; in the experiment with HL-60, 16 µM (inactive). Moreover, the GI50 was 32.5 µM (inactive) in the experiment with HOP-92; 24.5 µM (inactive) in the experiment with IGROV-1; 19.2 µM (inactive) with LOX IMVI; 28.9 µM (inactive) in the experiment on M14; 20.6 µM (inactive) with Malme-3M; 30.3 µM (inactive) with NCI-H23. Also, the GI50 with NCI-H460 was 25.9 µM (inactive); with OVCAR-4 it was 19.8 µM (inactive); in the experiment with SF-295, 28.2 µM (inactive); in the experiment on SF-539 it was 20.9 µM (inactive); with SR, 25.4 µM (inactive); in the experiment with UO-31, 19.8 µM (inactive).

Take `C[C@]12CCC[C@H](O)[C@H]1C[C@H](CO)CC2`: the GI50 in the experiment with 786-0 is > 100 µM (inactive); in the experiment with A498, > 100 µM (inactive); in the experiment with HCC 2998, > 100 µM (inactive); in the experiment on HCT-116 it was > 100 µM (inactive); in the experiment with HCT-15 it was > 100 µM; in the experiment on HL-60, > 100 µM (inactive). The GI50 with HOP-92, in the experiment on IGROV-1, with LOX IMVI, with M14, in the experiment on Malme-3M and in the experiment on NCI-H23 was > 100 µM (inactive) each time. The GI50 in the experiment on NCI-H460, in the experiment on OVCAR-4, in the experiment on SF-295, in the experiment on SF-539, in the experiment on SR and in the experiment with UO-31 was > 100 µM (inactive) throughout.

For `COc1ccc2oc3cccc(NCCN(C)C)c3c(=O)c2c1`, the GI50 was 10.9 µM (inactive) with 786-0; 19.1 µM (inactive) in the experiment on A498; 8.65 µM (inactive) with HCC 2998; 7.01 µM (inactive) in the experiment with HCT-116; 13.7 µM in the experiment with HCT-15; 9.68 µM (inactive) in the experiment with HL-60. For the same compound, the GI50 was 13.8 µM (inactive) in the experiment with HOP-92; 16.6 µM (inactive) in the experiment with IGROV-1; 10.6 µM (inactive) in the experiment on LOX IMVI; 15.8 µM (inactive) in the experiment with M14; 15.6 µM (inactive) with Malme-3M; 17.7 µM (inactive) with NCI-H23. Also, the GI50 was 8.83 µM (inactive) with NCI-H460; 12.7 µM (inactive) in the experiment on OVCAR-4; 16.1 µM (inactive) with SF-295; 14.3 µM (inactive) in the experiment on SF-539; 8.85 µM (inactive) in the experiment on SR; 8.3 µM (inactive) in the experiment with UO-31.

On to `COC(=O)C(C(=O)C(=O)Nc1ccc(Br)cc1)c1nc2ccc(Cl)cc2nc1O` (configuration not stated), for which the GI50 was > 100 µM (inactive) in the experiment with 786-0; > 100 µM (inactive) in the experiment with A498; > 100 µM (inactive) in the experiment with HCC 2998; > 100 µM (inactive) in the experiment with HCT-116; > 41.2 µM with HCT-15; > 83.2 µM (inactive) with HL-60. Moreover, the GI50 in the experiment with HOP-92 is > 100 µM (inactive); with IGROV-1 it was > 100 µM (inactive); with LOX IMVI, > 76.7 µM (inactive); with M14 it was > 100 µM (inactive); with Malme-3M, > 100 µM (inactive); with NCI-H23 it was > 100 µM (inactive). Besides, the GI50 in the experiment with NCI-H460 was > 57.1 µM (inactive); with OVCAR-4, > 34.5 µM (inactive); with SF-295, > 100 µM (inactive); in the experiment with SF-539 it was > 100 µM (inactive); in the experiment with SR, > 100 µM (inactive); in the experiment with UO-31, > 82.4 µM (inactive).

In the case of `O=C(O)/C(Cl)=C(\Cl)C(=O)Nc1ccc(Cl)c(Cl)c1Cl`, the GI50 in the experiment with 786-0 was 18.2 µM (inactive); with A498, 28.8 µM (inactive); in the experiment on HCC 2998, 18.9 µM (inactive); in the experiment on HCT-116, 11.8 µM (inactive); in the experiment with HCT-15, 19.4 µM; in the experiment with HL-60 it was 21.4 µM (inactive). Further, the GI50 in the experiment on HOP-92 is 17.2 µM (inactive); with IGROV-1 it was 20.7 µM (inactive); in the experiment on LOX IMVI it was 17.4 µM (inactive); with M14, 18.2 µM (inactive); in the experiment on Malme-3M, 19.3 µM (inactive); in the experiment on NCI-H23, 18.7 µM (inactive). In addition, the GI50 in the experiment on NCI-H460 was 21.8 µM (inactive); in the experiment with OVCAR-4, 19.4 µM (inactive); with SF-295, 18.5 µM (inactive); with SF-539, 19.1 µM (inactive); in the experiment on SR, 25.1 µM (inactive); in the experiment with UO-31, 16.3 µM (inactive).

Regarding `CCOC(OCC)C(CC)[Se]c1ccccc1` (configuration not stated), the GI50 was 19.1 µM (inactive) in the experiment on 786-0; > 100 µM (inactive) in the experiment with A498; 35.2 µM (inactive) with HCC 2998; 31.8 µM (inactive) with HCT-116; 15.5 µM with HCT-15; 2.42 µM (inactive) with HL-60. Further, the GI50 was 28.6 µM (inactive) in the experiment with HOP-92; > 100 µM (inactive) with IGROV-1; 5.82 µM (inactive) with LOX IMVI; 16 µM (inactive) in the experiment with M14; 5.02 µM (inactive) with Malme-3M; 7.13 µM (inactive) in the experiment on NCI-H23. The GI50 in the experiment on NCI-H460 is 45.7 µM (inactive); in the experiment on OVCAR-4, 13.3 µM (inactive); in the experiment with SF-295, > 100 µM (inactive); in the experiment on SF-539, > 100 µM (inactive); in the experiment with SR, 10.1 µM (inactive); in the experiment with UO-31, > 100 µM (inactive).

For the compound `CC(C)c1cccc(C(C)C)c1NC(=O)/C(Cc1nc2ccc(Cl)cc2nc1O)=N\NC(=O)C[N+](C)(C)C`, the GI50 in the experiment on 786-0 is > 100 µM (inactive); in the experiment with A498, > 100 µM (inactive); in the experiment with HCC 2998 it was > 100 µM (inactive); with HCT-116, > 100 µM (inactive); with HL-60, > 100 µM (inactive); in the experiment on HOP-92 it was 85.5 µM (inactive). The GI50 with IGROV-1, with M14, in the experiment on Malme-3M, in the experiment on NCI-H23, in the experiment with NCI-H460 and in the experiment on OVCAR-4 was > 100 µM (inactive) in each case. Moreover, the GI50 is > 100 µM (inactive) in the experiment on SF-295, > 100 µM (inactive) in the experiment with SF-539, > 100 µM (inactive) in the experiment with SR and 76.7 µM (inactive) in the experiment with UO-31.

For the compound `C=CCc1cc2cccc(OC)c2oc1=O`, the GI50 was > 100 µM (inactive) in the experiment on 786-0; > 100 µM (inactive) in the experiment on A498; > 100 µM (inactive) in the experiment on HCC 2998; > 100 µM (inactive) with HCT-116; > 100 µM in the experiment with HCT-15; 34.8 µM (inactive) in the experiment on HL-60. Moreover, the GI50 was 92.3 µM (inactive) in the experiment on HOP-92; > 100 µM (inactive) in the experiment on IGROV-1; 93.3 µM (inactive) in the experiment with LOX IMVI; > 100 µM (inactive) with M14; > 100 µM (inactive) in the experiment on Malme-3M; > 100 µM (inactive) with NCI-H23. Also, the GI50 in the experiment on NCI-H460 was > 100 µM (inactive); in the experiment with OVCAR-4, > 100 µM (inactive); in the experiment with SF-295 it was > 100 µM (inactive); in the experiment with SF-539, > 100 µM (inactive); in the experiment with SR it was 44.3 µM (inactive); with UO-31 it was 1.19 µM (inactive).
